The target of this assay is canine TRPM8 (Canis lupus familiaris, UniProt Q1A7N1). Description: In Vitro Canine TRPM8 Functional Assay (Ca2+ fluorescence, icilin activation). Type of assay: cell-based. As to conditions: for pIC50: read-out: IC50; for inhibition at 0.2 µM: read-out: % Inh @ 0.2; for inhibition at 0.5 µM: compound at 0.5 μM, read-out: % Inh @ 0.5. A digest of the protocol:
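Cells (HEK293, stable canine TRPM8) are seeded 24 h before assay. They are then dye-loaded with Calcium 3 at 37 °C followed by room temperature. Compound is added and monitored for 5 min, after which icilin (~80% maximal response) is added.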

[1] abbreviates: HEK293 cells stably expressing canine TRPM8, icilin activation, eight-point dose-response.
Where [2] appears, read: compound at 0.2 μM, canine TRPM8, icilin activation.
The mark [3] stands for this setting: 0.2 μM compound, HEK293 cells stably expressing canine TRPM8, icilin activation.
Where [4] appears, read: HEK293 cells stably expressing canine TRPM8, icilin activation, average of two or more determinations.
Setting [5] is: canine TRPM8, icilin activation.

pIC50: −log10 of the molar value. Where two headings read alike, the source gives them in different places.

Sequence of canine TRPM8 (Q1A7N1 1-1104): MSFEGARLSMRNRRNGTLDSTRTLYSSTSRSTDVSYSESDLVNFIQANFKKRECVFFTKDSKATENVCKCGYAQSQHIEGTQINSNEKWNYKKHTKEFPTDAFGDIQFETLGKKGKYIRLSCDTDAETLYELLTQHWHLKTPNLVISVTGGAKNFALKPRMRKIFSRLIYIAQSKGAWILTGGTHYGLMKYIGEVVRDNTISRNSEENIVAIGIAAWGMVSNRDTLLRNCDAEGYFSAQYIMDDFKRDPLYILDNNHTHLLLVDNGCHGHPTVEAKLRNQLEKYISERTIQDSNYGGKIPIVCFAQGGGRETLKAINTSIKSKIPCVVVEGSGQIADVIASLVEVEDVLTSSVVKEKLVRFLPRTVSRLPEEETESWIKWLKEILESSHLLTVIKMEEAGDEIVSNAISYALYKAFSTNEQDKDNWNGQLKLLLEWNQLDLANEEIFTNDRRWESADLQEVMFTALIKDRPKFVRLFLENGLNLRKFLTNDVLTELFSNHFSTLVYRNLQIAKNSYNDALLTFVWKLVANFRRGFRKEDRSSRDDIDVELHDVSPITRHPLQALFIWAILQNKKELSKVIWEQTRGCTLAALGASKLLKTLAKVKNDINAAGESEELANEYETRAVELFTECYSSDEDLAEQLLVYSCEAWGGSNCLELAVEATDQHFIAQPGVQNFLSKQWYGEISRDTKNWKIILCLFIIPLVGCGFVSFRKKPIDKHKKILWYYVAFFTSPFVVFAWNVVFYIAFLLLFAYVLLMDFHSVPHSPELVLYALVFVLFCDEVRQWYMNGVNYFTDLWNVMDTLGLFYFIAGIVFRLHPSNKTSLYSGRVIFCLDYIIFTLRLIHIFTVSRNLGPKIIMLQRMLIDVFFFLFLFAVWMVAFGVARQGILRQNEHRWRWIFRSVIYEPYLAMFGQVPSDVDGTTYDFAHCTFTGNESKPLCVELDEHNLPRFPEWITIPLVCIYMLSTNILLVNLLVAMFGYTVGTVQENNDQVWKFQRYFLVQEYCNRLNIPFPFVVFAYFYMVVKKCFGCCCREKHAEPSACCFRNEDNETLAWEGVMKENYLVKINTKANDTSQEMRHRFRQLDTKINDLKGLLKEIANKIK

Regarding `CS(=O)(=O)N(Cc1ccc(F)c(C(F)(F)F)c1)c1cc2ccccc2s1` [Compound 45, N-(Benzo[b]thiophen-2-yl)-N-(4-fluoro-3-trifluoromethyl-benzyl)-methanesulfonamide], the pIC50 (in general, the negative decadic logarithm of the IC50, by convention in mol/L) under setting [1] is 7.28. In addition, under setting [2], the inhibition at 0.2 µM came out at 97%.

In the case of `CC1=C(N(Cc2ccc(F)c(C(F)(F)F)c2)S(=O)(=O)c2ccccc2)S(=O)(=O)c2ccccc21` [Compound 622, N-(4-Fluoro-3-trifluoromethyl-benzyl)-N-(3-methyl-1,1-dioxo-benzo[b]thiophen-2-yl)-benzenesulfonamide], the pIC50 under setting [1] was 7.50. The inhibition at 0.2 µM under setting [2] turned out to be 89%. Consider `COC(=O)c1ccc(S(=O)(=O)N(CCCOC(C)(C)C)c2sc3ccccc3c2C)cc1` [Compound 416, N-(3-Methyl-benzo[b]thiophen-2-yl)-N-(3-tert-butoxy-propyl)-4-carbomethoxy-benzenesulfonamide], for which the pIC50 under setting [1] is 7.92. Besides, the inhibition at 0.2 µM under setting [2] came out at 95%. With `Cc1c(N(Cc2ccc(OC(F)(F)F)cc2)S(=O)(=O)c2ccc(-c3nsc(=O)[nH]3)cc2)sc2ccccc12` [Compound 810, N-(3-Methyl-benzo[b]thiophen-2-yl)-N-(4-trifluoromethoxy-benzyl)-4-(5-oxo-4,5-dihydro-[1,2,4]thiadiazol-3-yl)-benzenesulfonamide], the inhibition at 0.2 µM under setting [3] was 102%. The pIC50 under setting [4] was 9.00. In the case of `O=c1[nH]c(-c2ccc(S(=O)(=O)N(CCCC(F)(F)F)c3cc4ccccc4s3)cc2)no1` [Compound 513, N-(Benzo[b]thiophen-2-yl)-N-(4,4,4-trifluoro-butyl)-4-(5-oxo-4,5-dihydro-[1,2,4]oxadiazol-3-yl)-benzenesulfonamide], the negative logarithm of the IC50 (pIC50) under setting [1] is 7.68. Also, the inhibition at 0.2 µM under setting [2] worked out at 101%. Turning to `COc1ccc(S(=O)(=O)N(Cc2ccc(F)c(F)c2)c2sc3ccccc3c2C)cc1` [Compound 26, N-(3,4-Difluoro-benzyl)-N-(3-methyl-benzo[b]thiophen-2-yl)-4-methoxy-benzenesulfonamide], under setting [1], the pIC50 was 7.70. In addition, the inhibition at 0.5 µM under setting [5] turned out to be 98%. As to `O=S(=O)(c1ccccc1)N(Cc1ccc(F)c(C(F)(F)F)c1)c1cc2ccccc2s1` [Compound 61, N-(Benzo[b]thiophen-2-yl)-N-(4-fluoro-3-trifluoromethyl-benzyl)-benzenesulfonamide], the pIC50 under setting [1] is 7.28. The inhibition at 0.5 µM under setting [5] was 95%. Consider `O=S(=O)(c1ccccc1)N(CCF)c1cc2ccccc2s1` [Compound 844, N-(Benzo[b]thiophen-2-yl)-N-(2-fluoro-ethyl)-benzenesulfonamide], for which the inhibition at 0.2 µM under setting [3] worked out at 31%. Consider `COc1cccc(S(=O)(=O)N(Cc2ccc(F)c(C(F)(F)F)c2)c2sc3ccccc3c2Cl)c1` [Compound 180, N-(3-Chloro-benzo[b]thiophen-2-yl)-N-(4-fluoro-3-trifluoromethyl-benzyl)-3-methoxy-benzenesulfonamide], for which the pIC50 under setting [1] was 7.37. For the same compound, the inhibition at 0.2 µM under setting [2] came out at 96%. As for `O=S(=O)(c1ccccc1)N(Cc1ccc(F)c(C(F)(F)F)c1)c1sc2ccccc2c1CO` [Compound 214, N-(4-Fluoro-3-trifluoromethyl-benzyl)-N-(3-hydroxymethyl-benzo[b]thiophen-2-yl)-benzenesulfonamide], the negative-log IC50 (pIC50) under setting [1] is 8.68. Also, the inhibition at 0.2 µM under setting [2] is 97%. For `COC(=O)c1ccc(S(=O)(=O)N(Cc2ccc(F)c(C(F)(F)F)c2)c2sc3ccccc3c2Br)cc1` [Compound 192, N-(3-Bromo-benzo[b]thiophen-2-yl)-N-(4-fluoro-3-trifluoromethyl-benzyl)-4-carbomethoxy-benzenesulfonamide], in that order: 7.22 and 82%. Turning to `CNC(=O)c1c(N(Cc2ccc(F)c(C(F)(F)F)c2)S(=O)(=O)c2ccccc2)sc2ccccc12` [Compound 458, N-(3-Methyl-carbamoyl-benzo[b]thiophen-2-yl)-N-(4-fluoro-3-trifluoromethyl-benzyl)-benzenesulfonamide], the pIC50 under setting [1] is 7.92. Also, the “% Inh @ 0.2 (μM)” value under setting [2] was 102%.

In the case of `Cc1c(N(CC(F)F)S(=O)(=O)c2ccccc2)sc2ccccc12` [Compound 102, N-(2,2-Difluoro-ethyl)-N-(3-methyl-benzo[b]thiophen-2-yl)-benzenesulfonamide], the pIC50 under setting [1] is 7.40. Moreover, the inhibition at 0.2 µM under setting [2] stood at 98%.

On to `CCS(=O)(=O)N(Cc1ccc(F)c(C(F)(F)F)c1)c1sc2ccccc2c1Br` [Compound 183, N-(3-Bromo-benzo[b]thiophen-2-yl)-N-(4-fluoro-3-trifluoromethyl-benzyl)-ethanesulfonamide], for which, under setting [1], the negative-log IC50 (pIC50) was 7.85. For the same compound, under setting [5], the inhibition at 0.5 µM amounted to 99%. As for `Cc1c(N(Cc2ccc(OC(F)(F)F)cc2)S(=O)(=O)CCC(C)(C)O)sc2ccccc12` [Compound 796, N-(3-Methyl-benzo[b]thiophen-2-yl)-N-(4-trifluoromethoxy-benzyl)-3-hydroxy-3-methyl-butane-1-sulfonamide], under setting [3], the inhibition at 0.2 µM came out at 101%. Also, the pIC50 under setting [4] is 7.62.

With `CCCCN(c1sc2cc(C(F)(F)F)ccc2c1C)S(=O)(=O)c1ccc(C(=O)O)cc1` [Compound 558, N-(3-Methyl-6-trifluoromethyl-benzo[b]thiophen-2-yl)-N-(butyl)-4-carboxy-benzenesulfonamide], the pIC50 under setting [1] is 7.00. The inhibition at 0.2 µM under setting [2] came to 80.9%. `COc1ccc(CN(c2sc3ccccc3c2C)S(=O)(=O)c2ccc(C(=O)O)cc2)cc1OC` [Compound 525, N-(3-Methyl-benzo[b]thiophen-2-yl)-N-(3,4-dimethoxy-benzyl)-4-carboxy-benzenesulfonamide]: the inhibition at 0.2 µM under setting [2] amounted to 101%. In the case of `O=S1(=O)C(N(CCC2CC2)S(=O)(=O)c2ccccc2)=C(N2CCNCC2)c2ccccc21` [Compound 647, N-(2-Cyclopropyl-ethyl)-N-(1,1-dioxo-3-piperazin-1-yl-1H-1λ^6-benzo[b]thiophen-2-yl)-benzenesulfonamide], the inhibition at 0.2 µM under setting [2] was determined as 21%. As to `CC(=O)c1c(N(Cc2ccccc2)S(=O)(=O)c2ccc(Br)cc2)sc2ccccc12` [Compound 732, N-(3-Acetyl-benzo[b]thiophen-2-yl)-N-(benzyl)-4-bromobenzenesulfonamide], under setting [1], the negative logarithm of the IC50 (pIC50) was 7.88. In addition, the inhibition at 0.2 µM under setting [2] amounted to 100%. On to `COC(=O)CS(=O)(=O)N(Cc1ccc(OC(F)(F)F)cc1)c1sc2ccccc2c1C` [Compound 761, N-(3-Methyl-benzo[b]thiophen-2-yl)-N-(4-trifluoromethoxy-benzyl)-carbomethoxy-methanesulfonamide], for which the pIC50 under setting [1] is 7.40. Under setting [2], the inhibition at 0.2 µM came to 79%. On to `CCCCN(c1sc2ccccc2c1Cl)S(=O)(=O)c1ccc(N(C)C)cc1` [Compound 561, N-(3-Chloro-benzo[b]thiophen-2-yl)-N-(butyl)-4-dimethylamino-benzenesulfonamide], for which, under setting [1], the pIC50 is 7.55. Moreover, the inhibition at 0.2 µM under setting [2] was 103%. For `Cc1c(N(CCCC(F)(F)F)S(=O)(=O)c2ccc(C(=O)O)cc2)sc2cc(F)ccc12` [Compound 426, N-(6-Fluoro-3-methyl-benzo[b]thiophen-2-yl)-N-(4,4,4-trifluoro-butyl)-4-carboxy-benzenesulfonamide], under setting [1], the pIC50 is 7.52. Besides, under setting [2], the inhibition at 0.2 µM is 95%.

As to `CCS(=O)(=O)N(Cc1ccc(F)c(C(F)(F)F)c1)c1sc2ccccc2c1[C@@H](C)O` [Compound 535], the pIC50 under setting [1] is 9.00. In addition, the “% Inh @ 0.2 (μM)” value under setting [2] was 102%.

The record behind these values is patent US9434711B2 (Janssen Pharmaceutica, NV, priority 2007, dated 2016).
